Source: US10112937B2, “P2X7 modulators and methods of use” (Janssen Pharmaceutica NV, priority 2013, dated 2018)

Target: human P2X7 (Homo sapiens (Human), UniProt Q99572)
Test: P2X7 antagonism in human PBMCs (IL-1β release after LPS + Bz-ATP, ELISA)
Format: cell-based
Details: human PBMCs; for PBMC 1 μM (% control): test compound 1 μM
[1] = 10 μM test compound, LPS + Bz-ATP

Chain of human P2X7 (Q99572 whole entry): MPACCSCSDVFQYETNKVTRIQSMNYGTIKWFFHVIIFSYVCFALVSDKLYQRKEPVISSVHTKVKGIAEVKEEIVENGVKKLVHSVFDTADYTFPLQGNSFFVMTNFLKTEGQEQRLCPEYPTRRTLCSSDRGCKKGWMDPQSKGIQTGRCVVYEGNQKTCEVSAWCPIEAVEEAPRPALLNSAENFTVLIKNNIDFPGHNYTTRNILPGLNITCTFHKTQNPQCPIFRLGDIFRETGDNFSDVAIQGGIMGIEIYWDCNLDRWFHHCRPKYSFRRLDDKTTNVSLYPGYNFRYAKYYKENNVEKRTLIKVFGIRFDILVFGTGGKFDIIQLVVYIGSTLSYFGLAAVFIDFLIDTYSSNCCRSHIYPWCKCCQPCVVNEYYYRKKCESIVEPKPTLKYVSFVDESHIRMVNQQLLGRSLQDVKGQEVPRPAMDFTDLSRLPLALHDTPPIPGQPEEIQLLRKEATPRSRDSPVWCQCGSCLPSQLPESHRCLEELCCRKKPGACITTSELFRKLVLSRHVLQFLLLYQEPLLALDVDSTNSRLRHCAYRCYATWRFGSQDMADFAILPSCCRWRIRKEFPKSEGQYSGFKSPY
Description: P2X7 Antagonism in Human Peripheral Blood Mononuclear Cells (PBMCs) and Human Whole Blood.
Human blood was collected using a blood donor program. PBMCs were isolated from blood using a Ficoll density gradient technique. Briefly, blood was laid on Ficoll solution and centrifuged at RT for 20 minutes at 2000 rpm. The buffy layer (between red blood cells and plasma) was carefully collected by aspiration, washed with PBS and centrifuged again at 1500 rpm for 15 minutes. The resulting cell pellet was washed and plated on 96 well-plates for experiments. For the Human Whole Blood experiments, 150 μl of human blood was platted on 96 well-plates. Lipopolysaccharide (LPS) (30 ng/ml) was added to each well and incubated for 1 hour. Test compounds were then added and incubated for 30 minutes. The P2X7 agonist, 2′(3′)-O-(4-benzoylbenzoyl) adenosine 5′ triphosphate (Bz-ATP) was then added at a final concentration of 0.5 mM (PBMC) or 1 mM (blood). Cells were incubated for an additional 1.5 hours. At that point, supernatant was collected and stored for IL-1β assay using manufacturer's protocol for enzyme-linked immunosorbent assay (ELISA). Data was expressed as percent control, where control is defined as the difference in IL-1β release in LPS+Bz-ATP samples and LPS only samples. Data was plotted as response (% control) versus concentration to generate IC50 values. […] Data are analyzed and graphed on Graphpad Prism 5. For analysis, each concentration point is averaged from triplicate values and the averaged values are plotted on Graphpad Prism.

SMILES	PBMC 10 μM (% control) (test compound 10 μM)	PBMC 10 μM (% control) [1]	further results
C[C@H]1Cc2c(nnn2-c2ncc(F)cn2)CN1C(=O)c1cc(F)cc(C(F)(F)F)c1 [Example 307, (S)-(3-fluoro-5-(trifluoromethyl)phenyl)(1-(5-fluoropyrimidin-2-yl)-6-methyl-6,7-dihydro-1H-[1,2,3]triazolo[4,5-c]pyridin-5(4H)-yl)methanone]	2.2 % control	–	–
C[C@@H]1Cc2c(nnn2-c2ccn[nH]2)[C@H](C)N1C(=O)c1cccc(C(F)(F)F)c1Cl [Example 309, (2-chloro-3-(trifluoromethyl)phenyl)((4S,6R)-4,6-dimethyl-1-(1H-pyrazol-5-yl)-6,7-dihydro-1H-[1,2,3]triazolo[4,5-c]pyridin-5(4H)-yl)methanone]	1.4 % control	–	–
O=C(c1cccc(C(F)(F)F)c1Cl)N1CCc2c(ncn2-c2ccc(F)cn2)C1 [Example 315, (2-chloro-3-(trifluoromethyl)phenyl)(1-(5-fluoropyridin-2-yl)-6,7-dihydro-1H-imidazo[4,5-c]pyridin-5(4H)-yl)methanone]	8.8 % control	–	–
C[C@H]1Cc2c(nnn2-c2ccn[nH]2)[C@H](C)N1C(=O)c1cccc(C(F)(F)F)c1Cl [Example 319, (2-chloro-3-(trifluoromethyl)phenyl)((4S,6S)-4,6-dimethyl-1-(1H-pyrazol-5-yl)-6,7-dihydro-1H-[1,2,3]triazolo[4,5-c]pyridin-5(4H)-yl)methanone]	−6.8 % control	–	–
Cn1nc2c(c1-c1ccc(F)cc1)CCN(C(=O)c1cccc(Cl)c1Cl)C2 [Example 326, (2,3-dichlorophenyl)(3-(4-fluorophenyl)-2-methyl-4,5-dihydro-2H-pyrazolo[3,4-c]pyridin-6(7H)-yl)methanone]	–	–	PBMC 1 μM (% control): 92.0 % control
Cn1nc2c(c1-c1ccncc1)CCN(C(=O)c1cccc(Cl)c1Cl)C2 [Example 328, (2,3-dichlorophenyl)(2-methyl-3-(pyridin-4-yl)-4,5-dihydro-2H-pyrazolo[3,4-c]pyridin-6(7H)-yl)methanone]	–	–	PBMC 1 μM (% control): 88.0 % control
Cc1nc2c(n1-c1ccccc1)CCN(C(=O)c1cccc(Cl)c1Cl)C2 [Example 331, (2,3-dichlorophenyl)(2-methyl-1-phenyl-6,7-dihydro-1H-imidazo[4,5-c]pyridin-5(4H)-yl)methanone]	−11.0 % control	–	–
CCc1nc2c(n1-c1ccccc1)CCN(C(=O)c1cccc(Cl)c1Cl)C2 [Example 332, (2,3-dichlorophenyl)(2-ethyl-1-phenyl-6,7-dihydro-1H-imidazo[4,5-c]pyridin-5(4H)-yl)methanone]	−9.5 % control	–	–
C[C@H]1c2nnn(-c3cncnc3)c2CCN1C(=O)c1cccc(C(F)(F)F)c1Cl [Example 333, (S)-(2-chloro-3-(trifluoromethyl)phenyl)(4-methyl-1-(pyrimidin-5-yl)-6,7-dihydro-1H-[1,2,3]triazolo[4,5-c]pyridin-5(4H)-yl)methanone]	6.9 % control	–	–
Cc1ccc(-n2nnc3c2CCN(C(=O)c2cccc(Cl)c2Cl)C3C)nc1 (stereo not drawn) [Example 336, (2,3-dichlorophenyl)(4-methyl-1-(5-methylpyridin-2-yl)-6,7-dihydro-1H-[1,2,3]triazolo[4,5-c]pyridin-5(4H)-yl)methanone]	−0.5 % control	–	–
Cc1ccnc(-n2nnc3c2CCN(C(=O)c2ccnc(C(F)(F)F)c2Cl)C3C)c1 (stereo not drawn) [Example 358, (3-chloro-2-(trifluoromethyl)pyridin-4-yl)(4-methyl-1-(4-methylpyridin-2-yl)-6,7-dihydro-1H-[1,2,3]triazolo[4,5-c]pyridin-5(4H)-yl)methanone]	−0.7 % control	–	–
CCn1nccc1-n1nnc2c1CCN(C(=O)c1cccc(C(F)(F)F)c1Cl)[C@H]2C [Example 407, (S)-(2-chloro-3-(trifluoromethyl)phenyl)(1-(1-ethyl-1H-pyrazol-5-yl)-4-methyl-6,7-dihydro-1H-[1,2,3]triazolo[4,5-c]pyridin-5(4H)-yl)methanone]	–	77.4 % control	–
CC(C)n1ccc(-n2nnc3c2CCN(C(=O)c2cccc(C(F)(F)F)c2Cl)[C@H]3C)n1 [Example 413, (S)-(2-chloro-3-(trifluoromethyl)phenyl)(1-(1-isopropyl-1H-pyrazol-3-yl)-4-methyl-6,7-dihydro-1H-[1,2,3]triazolo[4,5-c]pyridin-5(4H)-yl)methanone]	–	68.5 % control	–
CC(C)n1ccc(-n2nnc3c2CCN(C(=O)c2ccnc(C(F)(F)F)c2Cl)[C@H]3C)n1 [Example 417, (S)-(3-chloro-2-(trifluoromethyl)pyridin-4-yl)(1-(1-isopropyl-1H-pyrazol-3-yl)-4-methyl-6,7-dihydro-1H-[1,2,3]triazolo[4,5-c]pyridin-5(4H)-yl)methanone]	–	112.2 % control	–

Continued, in another order:

PBMC 10 μM (% control) (test compound 10 μM)	PBMC 10 μM (% control) [1]	SMILES	further results
64.7 % control	–	Cc1cc(-n2nnc3c2CCN(C(=O)c2ccnc(C(F)(F)F)c2F)C3C)ncn1 (stereo not drawn) [Example 397, (3-fluoro-2-(trifluoromethyl)pyridin-4-yl)(4-methyl-1-(6-methylpyrimidin-4-yl)-6,7-dihydro-1H-[1,2,3]triazolo[4,5-c]pyridin-5(4H)-yl)methanone]	–
82.0 % control	–	Cc1nccc(-n2nnc3c2CCN(C(=O)c2ccnc(C(F)(F)F)c2F)C3C)n1 (stereo not drawn) [Example 401, (3-fluoro-2-(trifluoromethyl)pyridin-4-yl)(4-methyl-1-(2-methylpyrimidin-4-yl)-6,7-dihydro-1H-[1,2,3]triazolo[4,5-c]pyridin-5(4H)-yl)methanone]	–
–	−3.1 % control	CCn1ccc(-n2nnc3c2C[C@H](C)N(C(=O)c2cccc(C(F)(F)F)c2Cl)C3)n1 [Example 404, (S)-(2-chloro-3-(trifluoromethyl)phenyl)(1-(1-ethyl-1H-pyrazol-3-yl)-6-methyl-6,7-dihydro-1H-[1,2,3]triazolo[4,5-c]pyridin-5(4H)-yl)methanone]	–
–	−3.6 % control	CCn1nccc1-n1nnc2c1C[C@H](C)N(C(=O)c1cccc(C(F)(F)F)c1Cl)C2 [Example 406, (S)-(2-chloro-3-(trifluoromethyl)phenyl)(1-(1-ethyl-1H-pyrazol-5-yl)-6-methyl-6,7-dihydro-1H-[1,2,3]triazolo[4,5-c]pyridin-5(4H)-yl)methanone]	–
–	53.6 % control	CCn1ccc(-n2nnc3c2C[C@H](C)N(C(=O)c2ccnc(C(F)(F)F)c2F)C3)n1 [Example 408, (S)-(1-(1-ethyl-1H-pyrazol-3-yl)-6-methyl-6,7-dihydro-1H-[1,2,3]triazolo[4,5-c]pyridin-5(4H)-yl)(3-fluoro-2-(trifluoromethyl)pyridin-4-yl)methanone]	–
–	−1.5 % control	CCn1ccc(-n2nnc3c2C[C@H](C)N(C(=O)c2ccnc(C(F)(F)F)c2Cl)C3)n1 [Example 410, (S)-(3-chloro-2-(trifluoromethyl)pyridin-4-yl)(1-(1-ethyl-1H-pyrazol-3-yl)-6-methyl-6,7-dihydro-1H-[1,2,3]triazolo[4,5-c]pyridin-5(4H)-yl)methanone]	–
–	69.6 % control	CCn1ccc(-n2nnc3c2CCN(C(=O)c2ccnc(C(F)(F)F)c2Cl)[C@H]3C)n1 [Example 411, (S)-(3-chloro-2-(trifluoromethyl)pyridin-4-yl)(1-(1-ethyl-1H-pyrazol-3-yl)-4-methyl-6,7-dihydro-1H-[1,2,3]triazolo[4,5-c]pyridin-5(4H)-yl)methanone]	–
